Experimental data taken from US5466450A, “Antiviral antibiotic BU-4224V” (priority 1993, dated 1995).
≈ marks a conversion by molar mass, not a printed value.

Assays:
Type in all cases: cell-based
[1] = system: herpes simplex virus type 1 (KOS strain); assay: Dye uptake assay, HSV-1 infection in Vero cells; settings: Human alphaherpesvirus 1, HSV-1, Vero cells, 72 hours, read-out: ID50 (the source's name)
Protocol: (§1) Antiviral activity for each component of BU-4224V was evaluated by the dye uptake and the plaque reduction assay using herpes simplex virus type 1 (KOS strain) infection in Vero cells. In the dye uptake assay, 200 μl of the Vero cell suspension containing 1.6×10^4 cells was poured into each well of 96-well microplates, and then 50 μl of medium containing a test compound at various concentrations was added to each well. The viral suspension (50 μl ) containing approximately 30X TCID50 was inoculated to each well. For cytotoxicity tests, the same set of wells without viruses were prepared. After incubation at 37° C. for 72 hours under the humidified 5% CO2 -95% air environment, the degree of inhibition of the virus-induced cytopathic effect and the drug-induced cytotoxicity were determined by means of the uptake of neutral red. […] Acyclovir was used as a reference compound of anti-HSV activity. The antiviral activity of BU-4224V was also evaluated by the conventional plaque reduction assay method using a 24-well microplate.

in vitro = settings: monkey, vero cells
Protocol: as §1

[2] = system: herpes simplex virus type 1 (KOS strain); assay: Plaque reduction assay, HSV-1 infection in Vero cells; settings: Human alphaherpesvirus 1, HSV-1, Vero cells, read-out: ID50 (the source's name)
Protocol: as §1

[3] = Minimal toxic dose in the plaque reduction assay; settings: monkey, HSV-Vero cells, read-out: MTD (minimal toxic dose)
Protocol: as §1

Question: Which IC50 [1] does the source give for `Nc1nc2c(ncn2COCCO)c(=O)[nH]1` [Acyclovir] here?
Answer: 0.09 µg/mL (≈ 0.4 µM)

Question: And the CC50 at 72 h (in vitro)?
Answer: > 100 µg/mL

Question: What about the IC50 [2] of the same compound?
Answer: 0.27 µg/mL (≈ 1.2 µM)

Question: And the MCC [3]?
Answer: > 100 µg/mL
